# Data taken from patent US20230190677A1, “PHARMACEUTICAL COMPOSITION FOR PREVENTING OR TREATING AGING-RELATED DISEASES” (INDUSTRY ACADEMIC COOPERATION FOUNDATION CHOSUN UNIVERSITY, priority 2021, published 2023).
# Tests used:
# AMPK [1] = assay: Immunoblotting of AMPK activation, oxidative stress-induced senescence; format: cell-based, human
# Description: (§1) H2O2 was used to induce oxidative stress-induced cell cycle arrest and senescence. Briefly, the cells were exposed to 200 μM H2O2 for 2 h and cultured for 2 d without H2O2. In the second treatment with H2O2, the cells were split 1:3, exposed to 200 μM H2O2 for 2 h, and cultured with either normal media (control), Lico D (1 μg/mL), ascorbic acid (500 μM AA; a positive control), or the compound C (0.5 μM; AMPK inhibitor) for 72 h. Cellular senescence was confirmed by SA-β-gal assay and Western blotting as described below.
# (§2) Total proteins were extracted with RIPA (radioimmunoprecipitation) lysis buffer system containing phenylmethylsulfonyl fluoride (PMSF), sodium orthovanadate (Na3VO4), and protease inhibitor cocktail (Santa Cruz Biotechnology) at 4° C. for 30 min, and the samples were centrifuged (spun down) at 16,000×g for 20 min. The total protein concentration was quantified using the Pierce BCA Protein Assay Kit (Thermo Fisher Scientific). Proteins (30-50 μg) were loaded and separated via sodium dodecyl sulphate-polyacrylamide gel electrophoresis (SDS-PAGE) gel electrophoresis, followed by blotting on a PVDF membrane (GE Healthcare, Germany). The membranes were blocked with 1% blocking solution containing non-fat dry milk in TBST for 1 h 30 min at RT to prevent non-specific binding of primary antibodies. […]
# LC3, BECN1, SQSTM1 = assay: Immunoblotting of autophagy markers, oxidative stress-induced senescence; format: cell-based, human
# Description: as §1
# (§3) Total proteins were extracted with RIPA (radioimmunoprecipitation) lysis buffer system containing phenylmethylsulfonyl fluoride (PMSF), sodium orthovanadate (Na3VO4), and protease inhibitor cocktail (Santa Cruz Biotechnology) at 4° C. for 30 min, and the samples were centrifuged (spun down) at 16,000×g for 20 min. The total protein concentration was quantified using the Pierce BCA Protein Assay Kit (Thermo Fisher Scientific). Proteins (30-50 μg) were loaded and separated via sodium dodecyl sulphate-polyacrylamide gel electrophoresis (SDS-PAGE) gel electrophoresis, followed by blotting on a PVDF membrane (GE Healthcare, Germany). The membranes were blocked with 1% blocking solution containing non-fat dry milk in TBST for 1 h 30 min at RT to prevent non-specific binding of primary antibodies. Subsequently, the membranes were incubated overnight at 4° C. with the corresponding primary antibodies. Secondary antibodies were conjugated with horseradish peroxidase and visualized using an enhanced chemiluminescence detection kit (GE Healthcare). Densitometry analysis was performed using the ImageJ software.
# hBM-MSCs [2] = assay: MTT cell viability assay (cytotoxic effect); format: cell-based, human; details: Lico D 0-8 μg/mL for 12 h, MTT (FIG. 1A)
# Description: (§4) Human bone marrow derived mesenchymal stem cells (hBM-MSCs) were acquired from Cell Engineering for Origin (CEFO), Seoul, Korea. The cells were free from bacterial, viral, and mycoplasmal contamination. […] The cells were grown in Dulbecco's modified Eagle medium (DMEM) (Gibco, Life Technologies, Grand Island, N.Y., USA) supplemented with 10% FBS (Gibco, Life Technologies, USA), L-glutamine, and 1% penicillin/streptomycin solution (Lonza, Walkersville, Md., USA). The cells were manipulated under sterile conditions in a humidified incubator at 37° C. with 5% CO2 and 95% air. The cells were subcultured as soon as they reached confluence. The cells were serially monitored under bright field microscopy (Nikon Eclipse TS100; Tokyo, Japan), and the media was changed every 3 d.
# (§5) The cytotoxic and protective effects of Lico D in hBM-MSCs were determined using the methylthiazolyldiphenyl-tetrazolium bromide (MTT) test, according to the manufacturer's instructions. To check the cytotoxic effect, hBM-MSCs were grown in a 96-well plate at a density of 8×10^3 cells per well. […] Cell viability was assessed using a spectrophotometer (Multiskan FC, Thermo Fisher Scientific). […] Following H2O2 treatment, cells were treated with MTT solution for 2 h, and cell viability was evaluated.
# hBM-MSCs [3] = assay: MTT cell viability assay (protective effect against H2O2); format: cell-based, human; details: hBM-MSCs pre-treated with 1 μg/mL for 12 h, then H2O2 0-1 mM for 1 h (FIG. 1B)
# Description: as §4, §5
# hBM-MSCs [4] = assay: Detection of intracellular ROS (DCFH-DA); format: cell-based, human; details: hBM-MSCs pretreated 1 μg/mL 12 h, H2O2 0.7 mM 1 h, vs H2O2 alone (FIGS. 1C, 1D)
# Description: (§6) To quantify the production of intracellular ROS, we used cell permeable substrate 2′,7′-dichlorofluorescin diacetate (DCFH-DA), which can be converted to highly detectable fluorescent 2′,7′-dichlorofluorescein upon oxidation. The cells were cultured in 12-well plates and 96-well plates for 24 h. After 24 h of culture, the cells were treated with 1 μg/mL of Lico D for 12 h and incubated with 20 μM DCFH-DA for 30 min. The cells were then washed with a phosphate-buffered saline (PBS) solution and incubated with H2O2 (0.7 mM) for 1 h at 37° C. The cells were then fixed with 4% paraformaldehyde at room temperature (RT) for 15 min and the nuclei were stained with Hoechst. Then, the cells were observed under a fluorescent microscope (Nikon Eclipse Ti2; Japan), and the images were captured (Nikon DS-Ri2; Japan) and analyzed using the Image J software. To analyze the apoptotic markers, the cells were pretreated with 1 μg/mL of Lico D followed by incubation with H2O2 (0.7 mM) for 1 h at 37° C., and then the proteins were isolated as described below.
# [5] = tested on: p53 and cleaved caspase 3; assay: Immunoblotting of apoptotic markers after H2O2; format: cell-based, human; details: hBM-MSCs pretreated 1 μg/mL, H2O2 0.7 mM 1 h, vs H2O2 alone (FIG. 1E)
# Description: as §6, with “To analyze the apoptotic markers, the cells were pretreated with 1 μg/mL of Lico D followed by incubation with H2O2 (0.7 mM) for 1 h at 37° C., and then the proteins were isolated as described below.” left out
# Total proteins were extracted with RIPA (radioimmunoprecipitation) lysis buffer system containing phenylmethylsulfonyl fluoride (PMSF), sodium orthovanadate (Na3VO4), and protease inhibitor cocktail (Santa Cruz Biotechnology) at 4° C. for 30 min, and the samples were centrifuged (spun down) at 16,000×g for 20 min. The total protein concentration was quantified using the Pierce BCA Protein Assay Kit (Thermo Fisher Scientific). […]
# hBM-MSCs [6] = assay: Senescence-associated β-galactosidase (SA-β-gal) staining, oxidative stress-induced senescence; format: cell-based, human; details: double time 200 μM H2O2 treated hBM-MSCs (40% without treatment); Lico D 1 μg/mL or ascorbic acid 500 μM for 72 h (FIG. 2C)
# Description: as §1
# Senescence-associated β-galactosidase positive cells were identified using an SA-β-gal assay kit (Cell Signaling Technology, Danvers, Mass., USA) according to the manufacturer's instructions. Briefly, after 72 h of treatment, cells were washed with phosphate-buffered saline (PBS) and fixed with 1× fixative for 10-15 min at room temperature. The β-galactosidase staining solution (pH 6.0) was added to the plates and incubated overnight in a dry incubator at 37° C. without CO2. The next day, the β-Gal positive cells were observed under a light microscope (Nikon Eclipse TS100; Tokyo, Japan) and captured using a Canon i-Solution IMTcam3 digital camera (Tokyo, Japan).
# p53, p16, and p21 = assay: Immunoblotting of senescence markers, oxidative stress-induced senescence; format: cell-based, human; details: double time H2O2 treated hBM-MSCs, Lico D 1 μg/mL 72 h (FIGS. 3A-3D)
# Description: as §1, §2
# [7] = Body weight in D-Gal induced aging mice; format: in vivo, C57BL/6 mice; details: D-Gal 150 mg/kg/day i.p. 10 weeks, Lico D 0.5 mg/kg/day i.p. 8 weeks, measured weekly (FIG. 5B)
# Description: (§7) Six-week-old male C57BL/6 mice (weighing 22±2 g) were purchased from Samtako Bio Korea Co., Ltd. (Osan, Gyeonggi, Korea) and maintained at 23-25° C. under a 12-h light and 12-h dark cycle with free access to food and water in a pathogen-free facility. All animal experiments were approved by the Institutional Animal Care and Use Committee of Chosun University (CIACUC2020-S0009). After a week of acclimation, the animals were randomly divided into three groups (four mice per group): normal control group (PBS alone), D-Galactose model group (150 mg/kg/day), and D-Galactose +Lico D (0.5 mg/kg/day). The mice were intraperitoneally injected with either PBS or D-Gal for 10 weeks and from the third week onwards, the mice were intraperitoneally injected with Lico D for 8 weeks (FIG. 5A). Body weight was measured every week until the end of the experiment. Thereafter, the MWM (Morris water maze) test was performed for one week.
# RAGE = assay: qRT-PCR of RAGE in D-Gal induced aging mice; format: in vivo, C57BL/6 mice; details: hippocampus, Lico D 0.5 mg/kg/day i.p. vs D-Gal treated mice (FIG. 5C)
# Description: as §7
# RNAisoPlus (Takara) was used to isolate total RNA from the hippocampus and heart tissues. Total RNA (2.5 μg) was then reverse-transcribed using PrimescriptTM II 1st strand cDNA synthesis kit (Takara) and quantified using the Power SYBR Green PCR Master mix (Applied BioSystems). To amplify β-actin and RAGE, the mouse primers in Table 1 below were used. […]
# D-Gal induced aging mice = assay: Morris water maze (MWM) test in D-Gal induced aging mice; format: in vivo, C57BL/6 mice
# Description: as §7
# p53 and p21 = assay: Immunoblotting of senescence markers in heart and hippocampus tissues of D-Gal induced aging mice; format: in vivo, C57BL/6 mice
# Description: as §3, with “Densitometry analysis was performed using the ImageJ software.” left out
# (§8) Six-week-old male C57BL/6 mice (weighing 22±2 g) were purchased from Samtako Bio Korea Co., Ltd. (Osan, Gyeonggi, Korea) and maintained at 23-25° C. under a 12-h light and 12-h dark cycle with free access to food and water in a pathogen-free facility. […] Body weight was measured every week until the end of the experiment. […]
# AMPK [8] = assay: Immunoblotting of AMPK activation in heart and hippocampus tissues of D-Gal induced aging mice; format: in vivo, C57BL/6 mice
# Description: as §3, with “Densitometry analysis was performed using the ImageJ software.” left out
# as §8
# LC3 II, BECN1 and SQSTM1 = assay: Immunoblotting of autophagy markers in heart tissue of D-Gal induced aging mice; format: in vivo, C57BL/6 mice; details: Lico D 0.5 mg/kg/day i.p. vs D-Gal-treated mice (FIGS. 8A-8D)
# Description: as §3, with “Densitometry analysis was performed using the ImageJ software.” left out
# as §8
# [9] = tested on: human melanoma, oral squamous cell carcinoma and lung adenocarcinoma; details: previously reported; cited from earlier work
# [10] = oxidative stress-induced senescent hBM-MSCs, Lico D 1 μg/mL (FIGS. 4A-4D)
smiles,measurement,setting,value
"c1cc(-c2cnn3cc(-c4ccc(OCCN5CCCCC5)cc4)cnc23)ccn1 [CC, reference compound]",Lico D-mediated AMPK activation upon treatment with CC,"AMPK [1]; senescent hBM-MSCs, compound C 0.5 μM with Lico D (FIGS. 3E, 3F)",abolished
same,AMPK-mediated autophagy upon treatment with CC,"LC3, BECN1, SQSTM1; senescent hBM-MSCs, compound C 0.5 μM with Lico D (FIGS. 4A-4D)",inhibited
"COc1c(/C=C/C(=O)c2ccc(O)c(CC=C(C)C)c2)ccc(O)c1O [Lico D, Licochalcone D]",cell viability,hBM-MSCs [2],no significant changes in cell viability
same,cell viability under H2O2 oxidative stress,hBM-MSCs [3],significantly increased
same,intracellular ROS levels,hBM-MSCs [4],significantly reduced
same,expression of apoptotic proteins p53 and cleaved caspase 3,[5],reduced
same,number of SA-β-gal-positive cells,hBM-MSCs [6],13%
same,"expression of senescence markers p53, p16, and p21","p53, p16, and p21",reduced
same,AMPK activation (pAMPK/AMPK),"AMPK [1]; oxidative stress-induced senescent hBM-MSCs, Lico D 1 μg/mL 72 h (FIGS. 3E, 3F)",significantly restored
same,expression levels of LC3 and BECN1,"LC3, BECN1, SQSTM1; [10]",significantly increased
same,expression of SQSTM1,"LC3, BECN1, SQSTM1; [10]",decreased
same,body weight,[7],No significant differences
same,RAGE expression at the mRNA level,RAGE,significantly reduced
same,number of times of target platform crossing (MWM),D-Gal induced aging mice; Lico D 0.5 mg/kg/day i.p. vs D-Gal treated mouse (FIG. 6C),tendency of increasing
same,escape latency (MWM),"D-Gal induced aging mice; Lico D 0.5 mg/kg/day i.p. vs D-Gal treated mouse, similar to control (FIG. 6A)",markedly short time
same,duration in target quadrant (MWM),"D-Gal induced aging mice; Lico D 0.5 mg/kg/day i.p. vs D-Gal treated mouse, similar to control (FIG. 6B)",significantly longer time
same,"expression levels of p53 and p21, heart","p53 and p21; heart tissue, Lico D 0.5 mg/kg/day i.p. vs D-Gal-injected mice (FIGS. 7A-7C)",significantly reduced
same,"expression levels of p53 and p21, hippocampus","p53 and p21; hippocampus tissue, Lico D 0.5 mg/kg/day i.p. vs D-Gal-injected mice (FIGS. 7F-7H)",significantly reduced
same,"AMPK activation, heart","AMPK [8]; heart tissue, Lico D 0.5 mg/kg/day i.p. vs D-Gal treatment (FIGS. 7D, 7E)",significantly increased
same,"AMPK activation, hippocampus","AMPK [8]; hippocampus tissue, Lico D 0.5 mg/kg/day i.p. vs D-Gal treatment (FIGS. 7I, 7J)",significantly increased
same,"expression of autophagy markers (LC3 II, BECN1 and SQSTM1)","LC3 II, BECN1 and SQSTM1",markedly increased
same,anticancer activity,[9],anticancer activity in a dose-dependent manner
"O=C1O[C@H]([C@@H](O)CO)C(O)=C1O [ascorbic acid, reference compound]",number of SA-β-gal-positive cells,hBM-MSCs [6],17%
